{"source": "patent US20240127967A1", "origin": "cited, not measured here", "test_system": "MARV", "settings": "mouse, in vivo; cited from earlier work", "data": [{"molecule": "CC(C)COCC(CN(Cc1ccccc1)c1ccccc1)N1CCCC1", "note": "(stereo not shown) [Bepridil]", "values": [{"measurement": "protection of mice", "value": "strongly protected"}]}]}
